Measured values reported in ChEMBL document CHEMBL1152560, “Substituted 2-arylbenzothiazoles as kinase inhibitors: hit-to-lead optimization” (Bioorg Med Chem, 2009).

Assays:
[1] = target: Glycogen synthase kinase-3 alpha (Homo sapiens) (UniProt P49840); assay: Residual activity of GSK3alpha at 1 uM by microplate scintillation counting
[2] = target: Fibroblast growth factor receptor 3 (Homo sapiens) (UniProt P22607); assay: Residual activity of FGFR3 at 10 uM by microplate scintillation counting
Chain of Fibroblast growth factor receptor 3 (Homo sapiens) (P22607 23-806 limits assumed): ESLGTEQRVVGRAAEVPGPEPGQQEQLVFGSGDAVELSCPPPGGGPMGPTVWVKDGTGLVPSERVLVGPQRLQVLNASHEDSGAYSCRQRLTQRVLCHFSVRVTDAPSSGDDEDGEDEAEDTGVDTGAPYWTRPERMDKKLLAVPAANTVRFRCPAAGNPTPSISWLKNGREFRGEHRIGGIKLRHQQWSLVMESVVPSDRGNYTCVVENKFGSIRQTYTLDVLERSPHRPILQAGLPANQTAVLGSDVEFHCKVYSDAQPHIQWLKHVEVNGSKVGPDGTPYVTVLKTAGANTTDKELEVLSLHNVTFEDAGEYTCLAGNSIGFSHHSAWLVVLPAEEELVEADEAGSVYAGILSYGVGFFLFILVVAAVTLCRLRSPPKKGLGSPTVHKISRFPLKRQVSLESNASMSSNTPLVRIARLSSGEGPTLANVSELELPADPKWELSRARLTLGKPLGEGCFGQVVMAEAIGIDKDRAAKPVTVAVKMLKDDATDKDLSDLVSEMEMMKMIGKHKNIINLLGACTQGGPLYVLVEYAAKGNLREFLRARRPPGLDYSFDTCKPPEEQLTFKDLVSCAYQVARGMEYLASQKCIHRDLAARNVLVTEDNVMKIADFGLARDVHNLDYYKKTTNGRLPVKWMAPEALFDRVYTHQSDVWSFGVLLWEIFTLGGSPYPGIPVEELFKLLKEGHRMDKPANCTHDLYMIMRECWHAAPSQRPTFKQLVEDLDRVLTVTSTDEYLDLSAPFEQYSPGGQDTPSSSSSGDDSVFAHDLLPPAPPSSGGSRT

[3] = target: G protein-coupled receptor kinase 4 (Homo sapiens) (UniProt P32298); assay: Residual activity of GRK4 at 0.1 uM by microplate scintillation counting
[4] = target: RAC-gamma serine/threonine-protein kinase (Homo sapiens) (UniProt Q9Y243); assay: Residual activity of AKT3 at 0.1 uM by microplate scintillation counting
Chain of RAC-gamma serine/threonine-protein kinase (Homo sapiens) (Q9Y243 whole entry): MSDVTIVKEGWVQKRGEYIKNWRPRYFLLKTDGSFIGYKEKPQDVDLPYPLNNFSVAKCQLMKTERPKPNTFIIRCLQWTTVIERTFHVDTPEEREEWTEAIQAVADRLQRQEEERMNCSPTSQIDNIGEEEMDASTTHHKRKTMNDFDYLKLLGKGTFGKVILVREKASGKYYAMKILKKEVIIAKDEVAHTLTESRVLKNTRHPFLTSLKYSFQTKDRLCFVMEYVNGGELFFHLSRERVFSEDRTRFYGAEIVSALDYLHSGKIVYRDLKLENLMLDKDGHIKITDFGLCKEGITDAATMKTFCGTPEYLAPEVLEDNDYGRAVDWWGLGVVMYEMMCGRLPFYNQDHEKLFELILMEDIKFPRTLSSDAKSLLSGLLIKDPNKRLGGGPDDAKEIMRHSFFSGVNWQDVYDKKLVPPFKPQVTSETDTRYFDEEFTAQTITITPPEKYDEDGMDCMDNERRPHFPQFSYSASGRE

[5] = target: Proto-oncogene tyrosine-protein kinase ROS (Homo sapiens) (UniProt P08922); assay: Residual activity of ROS at 1 uM by microplate scintillation counting
Chain of Proto-oncogene tyrosine-protein kinase ROS (Homo sapiens) (P08922 whole entry, canonical isoform): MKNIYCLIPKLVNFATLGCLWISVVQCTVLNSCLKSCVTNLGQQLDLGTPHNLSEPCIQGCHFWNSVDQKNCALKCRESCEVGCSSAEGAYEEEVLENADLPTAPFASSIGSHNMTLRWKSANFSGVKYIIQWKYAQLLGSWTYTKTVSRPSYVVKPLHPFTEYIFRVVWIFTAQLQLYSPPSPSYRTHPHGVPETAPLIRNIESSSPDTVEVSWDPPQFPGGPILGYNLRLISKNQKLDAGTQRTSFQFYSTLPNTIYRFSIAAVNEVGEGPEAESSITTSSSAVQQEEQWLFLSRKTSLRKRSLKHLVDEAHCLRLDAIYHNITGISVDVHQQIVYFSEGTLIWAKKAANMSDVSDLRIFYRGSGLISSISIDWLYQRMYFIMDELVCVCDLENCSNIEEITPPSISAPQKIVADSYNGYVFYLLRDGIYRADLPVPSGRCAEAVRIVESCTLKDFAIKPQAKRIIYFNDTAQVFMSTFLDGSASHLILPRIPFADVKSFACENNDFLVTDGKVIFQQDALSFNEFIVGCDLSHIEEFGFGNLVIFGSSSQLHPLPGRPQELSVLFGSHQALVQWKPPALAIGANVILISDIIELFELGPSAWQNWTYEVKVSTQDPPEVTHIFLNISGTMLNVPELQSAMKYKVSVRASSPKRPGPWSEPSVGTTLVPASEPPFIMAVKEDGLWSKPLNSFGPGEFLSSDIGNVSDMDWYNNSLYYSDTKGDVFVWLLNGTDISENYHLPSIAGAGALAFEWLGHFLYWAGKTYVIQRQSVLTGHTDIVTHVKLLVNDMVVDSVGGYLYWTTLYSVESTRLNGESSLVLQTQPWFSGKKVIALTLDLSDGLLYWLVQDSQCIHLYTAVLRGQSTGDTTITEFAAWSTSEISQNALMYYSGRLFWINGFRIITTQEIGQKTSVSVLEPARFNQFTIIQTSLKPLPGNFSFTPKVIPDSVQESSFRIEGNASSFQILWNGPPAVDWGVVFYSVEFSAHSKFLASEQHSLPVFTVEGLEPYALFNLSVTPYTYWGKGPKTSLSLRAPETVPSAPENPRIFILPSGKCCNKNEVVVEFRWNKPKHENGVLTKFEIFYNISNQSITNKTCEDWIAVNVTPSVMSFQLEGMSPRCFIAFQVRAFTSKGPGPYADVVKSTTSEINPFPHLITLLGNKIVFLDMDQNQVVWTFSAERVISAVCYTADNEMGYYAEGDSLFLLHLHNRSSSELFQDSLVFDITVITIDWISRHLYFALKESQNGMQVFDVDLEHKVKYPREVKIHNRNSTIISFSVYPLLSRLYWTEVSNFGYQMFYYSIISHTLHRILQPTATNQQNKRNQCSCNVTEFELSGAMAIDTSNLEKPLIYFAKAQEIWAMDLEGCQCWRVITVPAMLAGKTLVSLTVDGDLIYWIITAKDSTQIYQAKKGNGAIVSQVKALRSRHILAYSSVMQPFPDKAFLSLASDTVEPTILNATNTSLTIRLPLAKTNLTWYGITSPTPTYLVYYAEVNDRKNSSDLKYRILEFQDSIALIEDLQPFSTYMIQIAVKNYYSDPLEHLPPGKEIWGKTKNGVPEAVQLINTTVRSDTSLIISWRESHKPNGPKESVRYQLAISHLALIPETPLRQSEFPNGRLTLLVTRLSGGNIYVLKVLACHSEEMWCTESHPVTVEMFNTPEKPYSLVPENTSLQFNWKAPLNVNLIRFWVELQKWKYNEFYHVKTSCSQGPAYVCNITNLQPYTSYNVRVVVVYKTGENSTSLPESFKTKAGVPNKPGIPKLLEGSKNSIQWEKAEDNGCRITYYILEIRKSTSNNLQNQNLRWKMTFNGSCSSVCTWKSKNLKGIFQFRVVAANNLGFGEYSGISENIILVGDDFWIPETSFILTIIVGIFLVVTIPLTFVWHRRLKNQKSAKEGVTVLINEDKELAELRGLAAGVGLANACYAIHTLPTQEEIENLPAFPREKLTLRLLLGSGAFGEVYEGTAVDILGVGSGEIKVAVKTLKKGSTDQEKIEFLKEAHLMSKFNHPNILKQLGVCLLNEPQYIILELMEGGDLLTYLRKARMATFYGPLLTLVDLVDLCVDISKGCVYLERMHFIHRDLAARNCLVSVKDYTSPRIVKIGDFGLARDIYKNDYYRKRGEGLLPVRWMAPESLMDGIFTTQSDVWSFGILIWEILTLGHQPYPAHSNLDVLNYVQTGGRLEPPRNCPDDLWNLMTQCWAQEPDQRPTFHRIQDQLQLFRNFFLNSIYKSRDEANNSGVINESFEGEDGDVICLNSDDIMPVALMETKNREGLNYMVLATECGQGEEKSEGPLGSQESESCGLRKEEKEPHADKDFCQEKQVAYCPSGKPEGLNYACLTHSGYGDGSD

[6] = target: Casein kinase I isoform delta (Homo sapiens) (UniProt P48730); assay: Residual activity of CK1delta at 1 uM by microplate scintillation counting
Chain of Casein kinase I isoform delta (Homo sapiens) (P48730 whole entry, looked up, canonical isoform): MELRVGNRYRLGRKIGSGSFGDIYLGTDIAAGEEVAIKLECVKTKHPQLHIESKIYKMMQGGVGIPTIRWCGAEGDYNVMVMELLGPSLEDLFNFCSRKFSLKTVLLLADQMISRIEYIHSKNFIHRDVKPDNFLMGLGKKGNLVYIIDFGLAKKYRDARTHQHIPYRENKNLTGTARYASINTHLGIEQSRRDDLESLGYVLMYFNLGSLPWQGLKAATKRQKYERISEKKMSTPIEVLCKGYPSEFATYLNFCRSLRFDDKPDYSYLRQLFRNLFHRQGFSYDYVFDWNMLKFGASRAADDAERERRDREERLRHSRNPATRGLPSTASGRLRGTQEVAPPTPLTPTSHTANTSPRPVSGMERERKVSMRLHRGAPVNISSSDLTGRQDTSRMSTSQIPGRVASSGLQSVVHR

[7] = target: CDK9/cyclin T1 (Homo sapiens) (UniProt O60563+P50750); assay: Residual activity of CDK9/Cyclin T at 1 uM by microplate scintillation counting; type: protein-complex assay
[8] = target: T1, MAP kinase-activated protein kinase 5 (Homo sapiens) (UniProt Q8IW41); assay: Residual activity of MAPKAPK5 at 0.1 uM by microplate scintillation counting
T1 sequence (whole entry): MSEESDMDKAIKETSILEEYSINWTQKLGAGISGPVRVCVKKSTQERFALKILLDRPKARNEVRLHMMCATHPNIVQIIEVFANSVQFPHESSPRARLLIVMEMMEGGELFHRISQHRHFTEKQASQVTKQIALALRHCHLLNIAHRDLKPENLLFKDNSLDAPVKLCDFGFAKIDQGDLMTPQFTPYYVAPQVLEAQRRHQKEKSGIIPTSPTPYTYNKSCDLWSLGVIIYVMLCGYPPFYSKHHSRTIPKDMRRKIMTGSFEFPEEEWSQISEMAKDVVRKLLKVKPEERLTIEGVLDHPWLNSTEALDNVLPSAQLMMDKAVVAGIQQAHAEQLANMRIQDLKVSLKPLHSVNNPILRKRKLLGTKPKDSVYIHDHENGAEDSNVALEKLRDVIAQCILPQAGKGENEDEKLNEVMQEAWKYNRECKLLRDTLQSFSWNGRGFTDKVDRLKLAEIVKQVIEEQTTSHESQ

[9] = target: Cyclin-dependent kinase 5/CDK5 activator 1 (Homo sapiens) (UniProt Q00535+Q15078); assay: Residual activity of CDK5/p25NCK at 1 uM by microplate scintillation counting; type: protein-complex assay
Chain of Cyclin-dependent kinase 5/CDK5 activator 1 (Homo sapiens) (Q00535 whole entry): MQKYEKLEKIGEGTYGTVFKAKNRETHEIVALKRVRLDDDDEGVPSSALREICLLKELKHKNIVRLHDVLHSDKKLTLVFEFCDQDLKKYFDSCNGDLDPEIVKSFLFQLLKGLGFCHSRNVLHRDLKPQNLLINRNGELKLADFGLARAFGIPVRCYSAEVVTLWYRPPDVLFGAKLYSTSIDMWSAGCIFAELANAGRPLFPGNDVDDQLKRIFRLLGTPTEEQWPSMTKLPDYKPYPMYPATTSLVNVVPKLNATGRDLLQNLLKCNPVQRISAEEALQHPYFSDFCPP
Chain of Cyclin-dependent kinase 5/CDK5 activator 1 (Homo sapiens) (Q15078 99-307 partner limits assumed): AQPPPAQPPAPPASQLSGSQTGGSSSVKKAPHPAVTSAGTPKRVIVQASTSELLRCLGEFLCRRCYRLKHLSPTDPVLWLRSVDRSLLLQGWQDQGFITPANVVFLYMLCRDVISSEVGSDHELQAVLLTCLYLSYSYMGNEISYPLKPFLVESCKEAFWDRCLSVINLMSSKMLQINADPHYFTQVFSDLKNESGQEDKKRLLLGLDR

[10] = target: T2, Serine/threonine-protein kinase Nek11 (Homo sapiens) (UniProt Q8NG66); assay: Residual activity of NEK11 at 10 uM by microplate scintillation counting
T2 sequence (whole entry): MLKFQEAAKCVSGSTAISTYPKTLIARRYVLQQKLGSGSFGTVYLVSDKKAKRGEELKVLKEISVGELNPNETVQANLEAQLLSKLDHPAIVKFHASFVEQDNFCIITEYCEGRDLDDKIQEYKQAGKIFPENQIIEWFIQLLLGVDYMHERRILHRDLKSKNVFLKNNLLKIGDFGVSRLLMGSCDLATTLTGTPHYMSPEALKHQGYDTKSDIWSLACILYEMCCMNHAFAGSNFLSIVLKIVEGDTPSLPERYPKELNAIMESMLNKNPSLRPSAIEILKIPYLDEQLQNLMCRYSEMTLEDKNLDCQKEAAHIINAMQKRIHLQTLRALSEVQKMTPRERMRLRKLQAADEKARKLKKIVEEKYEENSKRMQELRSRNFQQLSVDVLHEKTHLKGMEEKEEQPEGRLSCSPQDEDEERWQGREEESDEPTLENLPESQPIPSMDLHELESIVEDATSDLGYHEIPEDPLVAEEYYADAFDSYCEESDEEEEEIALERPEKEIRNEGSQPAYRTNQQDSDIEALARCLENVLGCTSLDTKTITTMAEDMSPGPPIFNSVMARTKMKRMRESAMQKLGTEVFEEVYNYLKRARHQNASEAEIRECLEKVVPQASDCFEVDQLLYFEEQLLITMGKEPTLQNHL

[11] = target: T3, Serine/threonine-protein kinase Sgk1 (Homo sapiens) (UniProt O00141); assay: Residual activity of SGK1 at 0.1 uM by microplate scintillation counting
T3 sequence (whole entry): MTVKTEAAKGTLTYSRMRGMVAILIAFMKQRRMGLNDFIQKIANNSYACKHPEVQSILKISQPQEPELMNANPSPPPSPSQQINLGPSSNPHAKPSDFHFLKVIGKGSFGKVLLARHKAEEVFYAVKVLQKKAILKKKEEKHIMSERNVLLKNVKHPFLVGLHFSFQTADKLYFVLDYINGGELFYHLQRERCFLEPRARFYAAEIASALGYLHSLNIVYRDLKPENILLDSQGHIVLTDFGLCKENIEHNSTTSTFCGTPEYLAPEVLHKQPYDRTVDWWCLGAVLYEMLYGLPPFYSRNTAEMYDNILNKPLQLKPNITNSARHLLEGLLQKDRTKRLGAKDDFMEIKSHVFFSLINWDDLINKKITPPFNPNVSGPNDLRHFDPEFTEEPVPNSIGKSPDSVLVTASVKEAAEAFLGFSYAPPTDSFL

Chain of Glycogen synthase kinase-3 alpha (Homo sapiens) (P49840 2-483 limits assumed): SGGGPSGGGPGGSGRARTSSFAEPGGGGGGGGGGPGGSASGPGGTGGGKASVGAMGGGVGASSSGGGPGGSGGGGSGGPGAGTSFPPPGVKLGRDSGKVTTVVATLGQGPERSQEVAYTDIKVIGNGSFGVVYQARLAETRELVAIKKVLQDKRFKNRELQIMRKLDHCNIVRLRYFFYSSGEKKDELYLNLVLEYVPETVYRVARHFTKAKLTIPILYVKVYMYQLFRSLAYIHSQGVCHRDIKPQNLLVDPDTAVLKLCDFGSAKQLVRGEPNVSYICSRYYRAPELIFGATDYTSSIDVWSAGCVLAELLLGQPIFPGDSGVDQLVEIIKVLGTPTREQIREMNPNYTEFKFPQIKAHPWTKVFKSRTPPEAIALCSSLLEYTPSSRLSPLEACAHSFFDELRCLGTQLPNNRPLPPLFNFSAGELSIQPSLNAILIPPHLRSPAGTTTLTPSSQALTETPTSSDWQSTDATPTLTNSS

Row | residual activity [1] [%] | residual activity [2] [%] | residual activity [3] [%] | residual activity [4] [%] | residual activity [5] [%] | residual activity [6] [%] | residual activity [7] [%] | residual activity [8] [%] | residual activity [9] [%] | residual activity [10] [%] | residual activity [11] [%] | Structure (SMILES)
1 | 83 | 169 | 90 | 100 | 98 | 100 | 93 | 97 | 87 | 81 | 96 | COc1cc2c(Oc3ccc(-c4nc5ccccc5s4)cc3)ncnc2cc1OCCCN1CCCC1
2 | 87 | 171 | 84 | 96 | 97 | 96 | 102 | 124 | 82 | 113 | 85 | COc1cc2c(Oc3ccc(-c4nc5ccccc5s4)cc3)ncnc2cc1OCCCN1CCN(C)CC1
3 | 96 | 46 | 88 | 107 | 102 | 102 | 92 | 95 | 89 | 83 | 98 | COc1cc2c(Oc3ccc(-c4nc5ccccc5s4)cc3F)ncnc2cc1OCCCN1CCN(C)CC1
